Experiments:
[1] = system: NCI-H720 (Other Solid Carcinomas); test: combination Emax (second highest fraction inhibited in the dose matrix, 72 h); higher = more inhibition; extreme values may be limits of the assay
Procedure, shortened: (§1)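 Bliss excess equals the observed combination effect minus the expected value EA + EB − EA·EB, where EA and EB are the effects of each agent alone. Combination Emax is the second-highest inhibition within the matrix. Inhibition was scaled from CellTiter-Glo 2.0 luminescence, with 0 set by vehicle wells and 1 by blank wells, after 72 hours of two-drug dosing of cells plated in 1536-well plates.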

CAL-72 (Osteosarcoma) = test: Bliss excess, mean over the matrix (fraction); higher = more synergy
Procedure, shortened: as §1

EW-11 (Ewing's Sarcoma) = test: as above
Procedure, shortened: as §1

KS-1 (Glioblastoma) = test: as above
Procedure, shortened: as §1

[2] = system: LS-123 (Colorectal Carcinoma); test: as above
Procedure, shortened: as §1

[3] = system: OV-56 (Ovarian Carcinoma); test: as above
Procedure, shortened: as §1

[4] = system: BE-13 (T-Lymphoblastic Leukemia); test: as above
Procedure, shortened: as §1

[5] = system: KYAE-1 (Esophageal Adenocarcinoma); test: as above
Procedure, shortened: as §1

[6] = system: OE21 (Esophageal Squamous Cell Carcinoma); test: as above
Procedure, shortened: as §1

[7] = system: NCI-H720 (Other Solid Carcinomas); test: as above
Procedure, shortened: as §1

[8] = system: ESS-1 (Other Solid Carcinomas); test: as above
Procedure, shortened: as §1

[9] = system: MHH-CALL-2 (B-Lymphoblastic Leukemia); test: as above
Procedure, shortened: as §1

Compound	combination Emax [1]	Bliss excess (CAL-72 (Osteosarcoma))	Bliss excess (EW-11 (Ewing's Sarcoma))	Bliss excess (KS-1 (Glioblastoma))	Bliss excess [2]	Bliss excess [3]	Bliss excess [4]	Bliss excess [5]	Bliss excess [6]	Bliss excess [7]	Bliss excess [8]	Bliss excess [9]
CN(C)CCCOc1ccc(-c2ccc3ncc4c(c3c2)n(C2CCOCC2)c(=O)n4C)cn1 [AZD0156] + C=CCn1c(=O)c2cnc(Nc3ccc(N4CCN(C)CC4)cc3)nc2n1-c1cccc(C(C)(C)O)n1 [AZD1775] (first compound max 1 µM, partner max 1 µM)	0.722	-0.0492	-0.0426	-0.0268	-0.0229	-0.0459	-0.0329	-0.0143	0.0083	0.0013	-0.124	–
CN(C)CCCOc1ccc(-c2ccc3ncc4c(c3c2)n(C2CCOCC2)c(=O)n4C)cn1 [AZD0156] + CCN(CCO)CCCOc1ccc2c(Nc3cc(CC(=O)Nc4cccc(F)c4)[nH]n3)ncnc2c1 [AZD2811] (first compound max 1 µM, 7x7, partner max 1 µM)	0.742	-0.0213	-0.084	0.0228	-0.0409	-0.0176	-0.0908	-0.0154	-0.0048	0.0368	0.0179	–
CN(C)CCCOc1ccc(-c2ccc3ncc4c(c3c2)n(C2CCOCC2)c(=O)n4C)cn1 [AZD0156] + C[C@@H]1COCCN1C2=NC(=NC(=C2)C3(CC3)[S@](=N)(=O)C)C4=C5C=CNC5=NC=C4 [AZD6738] (first compound max 1 µM, 7x7, partner max 10 µM)	0.716	0.111	-0.112	-0.0267	-0.0313	0.0361	-0.0619	-0.011	0.0015	-0.0059	-0.0177	–
C=CCn1c(=O)c2cnc(Nc3ccc(N4CCN(C)CC4)cc3)nc2n1-c1cccc(C(C)(C)O)n1 [AZD1775] + C[C@@H]1COCCN1C2=NC(=NC(=C2)C3(CC3)[S@](=N)(=O)C)C4=C5C=CNC5=NC=C4 [AZD6738] (first compound max 1 µM, partner max 10 µM)	0.838	-0.0277	-0.0282	-0.0042	-0.0519	0.0141	0.0159	0.026	-0.0207	0.0344	-0.015	–
C=CCn1c(=O)c2cnc(Nc3ccc(N4CCN(C)CC4)cc3)nc2n1-c1cccc(C(C)(C)O)n1 [AZD1775] + O=C(c1cc(Cc2n[nH]c(=O)c3ccccc23)ccc1F)N1CCN(C(=O)C2CC2)CC1 [Olaparib] (first compound max 1 µM, partner max 10 µM)	0.671	-0.0871	-0.121	-0.0097	-0.0694	-0.0576	-0.0409	-0.0006	-0.0216	-0.035	-0.0316	–
CCc1c2c(nc3ccc(O)cc13)-c1cc3c(c(=O)n1C2)COC(=O)[C@]3(O)CC [SN-38] + O=C(c1cc(Cc2n[nH]c(=O)c3ccccc23)ccc1F)N1CCN(C(=O)C2CC2)CC1 [Olaparib] (first compound max 0.3 µM, 7x7, partner max 10 µM)	0.333	0.113	-0.0291	0.0068	0.0301	–	0.0503	-0.0184	-0.0198	-0.0027	0.0735	–
CC1(C)CCC(CN2CCN(c3ccc(C(=O)NS(=O)(=O)c4ccc(NCC5CCOCC5)c([N+](=O)[O-])c4)c(Oc4cnc5[nH]ccc5c4)c3)CC2)=C(c2ccc(Cl)cc2)C1 [Venetoclax] + C[C@@H](Nc1cc(F)cc(F)c1)c1cc(C(=O)N(C)C)cc2c(=O)cc(N3CCOCC3)oc12 [AZD8186] (first compound max 1 µM, 7x7, partner max 3 µM)	–	-0.0042	-0.0227	0.0007	0.0135	-0.0178	-0.0369	-0.0358	-0.0166	–	-0.0118	0.0163
CC1(C)CCC(CN2CCN(c3ccc(C(=O)NS(=O)(=O)c4ccc(NCC5CCOCC5)c([N+](=O)[O-])c4)c(Oc4cnc5[nH]ccc5c4)c3)CC2)=C(c2ccc(Cl)cc2)C1 [Venetoclax] + Cc1cc2ncnn2cc1Nc1ncc2c(n1)n(C1CCOCC1)c(=O)n2C [AZD7648] (first compound max 1 µM, 7x7, partner max 10 µM)	–	-0.0713	0.0082	-0.0296	-0.0543	0.0016	-0.0896	-0.0128	-0.0076	–	-0.0501	-0.0228
CC1(C)CCC(CN2CCN(c3ccc(C(=O)NS(=O)(=O)c4ccc(NCC5CCOCC5)c([N+](=O)[O-])c4)c(Oc4cnc5[nH]ccc5c4)c3)CC2)=C(c2ccc(Cl)cc2)C1 [Venetoclax] + Cn1cnc2c(F)c(Nc3ccc(Br)cc3Cl)c(C(=O)NOCCO)cc21 [Selumetinib] (first compound max 1 µM, 7x7, partner max 3 µM)	–	-0.0593	-0.0583	0.0043	-0.0512	-0.0188	-0.0418	-0.028	0.0044	–	-0.0393	0.0653

— the supplement of paper PMC11061612
